According to patent US20250144187A1, “COMBINATION OF HYDROLASES AND ANTI-MICROORGANISM DRUGS AND USES THEREOF” (CENTRE FOR EYE AND VISION RESEARCH LIMITED, priority 2023, published 2025):
Several values for one entry are separate records, joined by “and”; a condition that tells them apart may be missing. Equal entries are not always repeated.

Assays:
MRSA [1] = experiment: Check board broth micro-dilution assay, tedizolid phosphate with lysozyme; assay type: cell-based, Staphylococcus aureus
Procedure: (§1) 2) Check board broth micro-dilution assays. According to standard two-fold dilution method [Sun. H et al., Nat. Commun. 11, 5263 (2020) tedizolid phosphate at different concentrations were added into fresh LB medium (or trypticase soy troth medium with 5% defibrinated horse blood) containing different concentrations of human lysozyme in 96-well plate. Then, 20 μl of 1.0×10^7 CFU/ml logarithmic cultures of MRSA or MRSE were added into each well of the plate and co-incubated overnight. Drug-free LB medium in the absence or presence of bacteria served as background control and growth control group, respectively. […] Thus, there would be a series of FICI values. In most of cases, the lowest one among these values was listed to reflect the best achieving degree of combination therapy. In terms of the lowest FICI, FICI≤0.5, 0.5<FICI<1 or FICI≥1, would indicate the combination has synergy, part synergy or non-synergy effects, respectively.

MRSA [2] = experiment: Check board broth micro-dilution assay, cefdinir with lysozyme; assay type: cell-based, Staphylococcus aureus; details: for effect of LTA/WTA synthesis inhibitor on cefdinir/lysozyme combination (FICI): inhibitor added into bacterial suspension
Procedure: 2) Check board broth micro-dilution assays. According to standard two-fold dilution method [Sun H et al., Nat Commun 11, 5263 (2020)], cefdinir at different concentration was added into fresh LB medium (or trypticase soy broth medium with 5% defibrinated horse blood) containing different concentration of human lysozyme in 96-wells plate. After well mixed, about 20 μl of 1.0×10^7 CFU/ml logarithmic cultures of MRSA, MRSE, Streptococcus pyogenes (S. py), Streptococcus mutans (S. mu), Enterococcus faecium (E. faecium), Enterococcus faecalis (E. faecalis) and Corynebacterium pseudodiphtheriticum (C. ps) were added into each well of the plate und co-incubated overnight, Wells without any drugs served as growth controls, and wells without bacteria served as background controls. The inhibition ratio was calculated as [1−(ODsample−ODbackground)/(ODcontrol−ODbackground)]×100%. Besides, bacterial growth inhibition was also monitored by serial dilution in LB-agar plate. CFU was counted by performing 10-fold serial dilution in PBS and then spotting 10 μl of dilutions in LB-agar plate. The MIC was determined as the lowest concentration of a drug that could inhibit the […] growth of microorganism by both visual CFU and OD600 using a microtiter plate reader. Fractional inhibitory concentration (FIC) and fractional inhibitory concentration index (FICI) values were determined by standard method. Briefly, FICI=MICAB/MICA+MICBA/MICB=FICA+FICB. […] Thus, there would be a series of FICI values. In most of Cases the lowest one among these values was listed to reflect the best achieving degree of combination therapy. In terms of the lowest FICI, FICI≤0.5, 0.5<FICI<1 or FICI≥1, would indicate the combination has synergy, part synergy or non-synergy effects, respectively.

MRSA [3] = experiment: ATP level, auranofin/lysozyme; assay type: cell-based, Staphylococcus aureus; details: 0.5 mg/ml lysozyme and 0.34 μg/ml auranofin
Procedure: 8) ATP level. […] Those without any treatment served as control group. Alter 1 hour incubation at 37° C. all bacteria were collected and washed by cold PBS for 3 times. […] Then, 20 μl of each supernatant were added white 96-well plate pre-reactivated by 100 μl of ATP test solution (Beyotime) to perform luminometer measurement.

MRSA [4] = experiment: Mutation frequency and prevention concentration analysis, auranofin/lysozyme; assay type: cell-based, Staphylococcus aureus
Source text: 5) Mutation frequency and prevention concentration analysis.

MRSA [5] = experiment: Time-killing curves, auranofin/lysozyme; assay type: cell-based, Staphylococcus aureus; details: for inhibition effect on growth of MRSA at exponential phase: drug alone: 0.34 μg/ml auranofin or 0.5 mg/ml lysozyme
Procedure: 2) Time-killing curves According to standard method [K. R. V. Thappeta et al., (2020) ACS Infect Dis 6: 1228-1237], over-night cultured MRSA was diluted and aliquoted into new sterile tubes at 1:1000 ratio. Then, the bacterial suspension was co-cultured with […] auranofin, 0.5 mg/ml lysozyme or their combination at 37° C. with shaking at 200 rpm. Similar bacterial suspension without any additions served as control group. Then, 20 μl of each culture was extracted at time intervals of […] and 22 hours to determine CFUs by spotting 10 μl of 10-fold dilution on the LB agar plates and incubating at 37° C. for 24 hours prior to enumeration. All assays were performed in triplicate.

MRSA [6] = experiment: Resistance development study (serial passages), auranofin/lysozyme; assay type: cell-based, Staphylococcus aureus; details: combination with lysozyme compared with auranofin alone
Procedure: 4) Resistance development study. As described before [Y, Lau et al., (2020) Adv Sci 7:1902227]. MRSA at exponential phase was diluted (1:1000) into fresh LB medium containing different concentrations of auranofin, lysozyme or their combination. After 1 passage (24 hours) at 37° C., MIC of culture was determined by standard two-fold serial dilutions. Next, this culture with higher MIC was further diluted into similar LB medium but with higher concentrations of compounds for next passages. The process was repeated for 18 days. By analyzing initial MICs of auranofin or lysozyme, fold-changes in MI s of these compounds were calculated. Assays were performed in triplicate.

MRSA [7] = experiment: TMT proteomics analysis and PRM validation, auranofin/lysozyme; details: auranofin + lysozyme combination vs lysozyme alone, 5 hours
MRSA in ARPE-19 cells = experiment: Cell-based infection model, auranofin/lysozyme; details: ≥0.34 μg/ml auranofin combined with 0.5 mg/ml lysozyme
MRSA biofilm = experiment: Biofilm crystal violet assay, auranofin/lysozyme; assay type: cell-based, Staphylococcus aureus
Procedure: 3) Biofilm assays According to described previously method [K. R. V. Thappeta et al., (2020) ACS infect Dis 6: 1228-1237], biofilm inhibition was assessed by using an adherence assay on 96-well tissue culture plates. Briefly, bacterial suspensions (1×10^6 (CFU/ml) were exposed to 0.34 μg/ml auranofin in LB medium in the absence and presence of 0.5 mg/ml lysozyme. LB medium with or without bacteria served as […] control group, respectively. After overnight incubation at 37° C. bacterial suspensions were removed, and the wells were gently washed twice with sterile PBS to remove exclusively non-adherent bacteria. The adherent biofilms were fixed by using 95% methanol at 60° C. for 15 minutes. Then, biofilms were stained with 1% crystal violet (100 μl/well) at 37° C. for 15 minutes, followed by gently washing with PBS to remove redundant crystal violet. Finally, the dye was solubilized with 150 μl of 95% ethanol per well at 37° C. for 30 minutes. The optical density of solution in each well was measured at 590 nm using a micro-plate reader. Herein, strong biofilm, weak biofilm and no biofilm wen defined as “ODsample≥2 ODnegative control”, “ODnegative control<ODsample<2 ODnegative control” and “ODsample≤ODnegative control”, respectively. All assays were performed in triplicate.

[8] = tested on: methicillin-resistant Staphylococcus aureus USA 300 (MRSA, ATCC-BAA1556); experiment: Check board broth micro-dilution assay, auranofin with human lysozyme; assay type: cell-based
Procedure: Then, about 5.0×10^5 colony-forming units (CFUs) of methicillin-resistant Staphylococcus aures (MRSA, USA300 strain) in log phase were added into each well for overnight culture. Bacterial growth inhibition was monitored by optical density at 600 nm (OD600) and colony units in serial dilution in LB agar plate. Well without any drug served as growth control, and well without bacteria served as background control. The inhibition ratio was calculated as […]. CFUs were counted by 10-fold serial dilution in phosphate buffered saline (PBS) and 10 μl of dilutions were spotted in LB agar plate. […] Briefly, FICI=MICAB/MICA+MICBA/MICB=FICA+FICB. […] Thus, there would be a series of FICI values. In most of cases, the lowest one among these values was listed to reflect the best achieving degree of combination therapy. In terms of the lowest FICI, FICI≤0.5, 0.5<FICI<1 or FICI≥1, would indicate whether the combination has synergy, part synergy or non-synergy effects, respectively. Besides, to better highlight the inhibition degree of bacterial growth in combination therapy or identify whether combination therapy has synergy effect, results might be shown by heat-maps or line-charts containing different FICI values, although they were performed by using same 2-fold dilution method. All assays were performed in triplicate.

ARPE-19 cells = experiment: Toxicity analysis of auranofin by CCK-8 kit; assay type: cell-based, human; details: uninfected cells
Source text: FIG. 10: Toxicity analysis of auranofin on ARPE-19 cells by using CCK-8 kit.

MRSE [9] = experiment: Check board broth micro-dilution assay, tedizolid phosphate with lysozyme; assay type: cell-based, Staphylococcus epidermis; details: lysozyme alone
Procedure: as §1

MRSE [10] = experiment: Check board broth micro-dilution assay, cefdinir with lysozyme; assay type: cell-based, Staphylococcus epidermidis; details: lysozyme alone
Procedure: 2) Check board broth micro-dilution assays. According to standard two-fold dilution method [Sun H et al., Nat Commun 11, 5263 (2020)], cefdinir at different concentration was added into fresh LB medium (or trypticase soy broth medium with 5% defibrinated horse blood) containing different concentration of human lysozyme in 96-wells plate. After well mixed, about 20 μl of 1.0×10^7 CFU/ml logarithmic cultures of MRSA, MRSE, Streptococcus pyogenes (S. py), Streptococcus mutans (S. mu), Enterococcus faecium (E. faecium), Enterococcus faecalis (E. faecalis) and Corynebacterium pseudodiphtheriticum (C. ps) were added into each well of the plate und co-incubated overnight, Wells without any drugs served as growth controls, and wells without bacteria served as background controls. The inhibition ratio was calculated as [1−(ODsample−ODbackground)/(ODcontrol−ODbackground)]×100%. Besides, bacterial growth inhibition was also monitored by serial dilution in LB-agar plate. CFU was counted by performing 10-fold serial dilution in PBS and then spotting 10 μl of dilutions in LB-agar plate. The MIC was determined as the lowest concentration of a drug that could inhibit the […] growth of microorganism by both visual CFU and OD600 using a microtiter plate reader. Fractional inhibitory concentration (FIC) and fractional inhibitory concentration index (FICI) values were determined by standard method. […]

## N#CC(C#N)=NNc1cccc(Cl)c1 [CCCP, Carbonyl cyanide m-chlorophenyl hydrazone]
MRSA [1]; cells incubated with the inhibitor
  effect of ion-targeting inhibitor on FICI of tedizolid phosphate/lysozyme combination: significant increase in FICI

## O=C(COC(=O)Cc1coc2ccc3ccccc3c12)Nc1nnc(-c2ccccc2)o1 [LtaS-IN-1]
MRSA [2]
  effect of LTA/WTA synthesis inhibitor on cefdinir/lysozyme combination (FICI): abolish the combination effect

## CCN(CC)c1nc2c(S(=O)(=O)c3ccc(Cl)cc3)nnn2c2cc(OC)c(OC)cc12 [Targocil]
MRSA [2]
  effect of LTA/WTA synthesis inhibitor on cefdinir/lysozyme combination (FICI): abolish the combination effect

## CC(=O)OC[C@H]1O[C@@H]([S-])[C@H](OC(C)=O)[C@@H](OC(C)=O)[C@@H]1OC(C)=O.CCP(CC)CC.[Au+] [auranofin, Auranofin]
MRSA [3]
  ATP level: significantly reduced
MRSA [4]; 0.34 μg/ml auranofin + 2 mg/ml lysozyme
  gene mutation frequency: ≤ 1×10^−9
MRSA [4]; 0.34 μg/ml auranofin without lysozyme
  gene mutation frequency: ≥ 9×10^−6
MRSA [5]; 0.34 μg/ml auranofin + 0.5 mg/ml lysozyme, reduced from the level of 10^10
  bacterial load: 10^5 CFU/ml
MRSA [5]
  inhibition effect on growth of MRSA at exponential phase: few inhibitions effect
MRSA [6]
  development of auranofin resistance: did suppress the development of auranofin resistance
MRSA [7]
  CopZ over-expression: 21 fold
  N-acetylmuramoyl-L-alanine amidase domain (Q2G222) overexpression: ~1.84 fold
  protein level of walR (Q7A8E1): ~0.68 fold
MRSA in ARPE-19 cells
  drop of bacterial load in infected ARPE-19 cells: 10^2 fold
MRSA in ARPE-19 cells; MOI 5
  bacterial load in infected ARPE-19 cells: 10^5 CFU/ml
MRSA biofilm; 0.34 μg/ml auranofin + 0.5 mg/ml lysozyme
  biofilm-based absorbance at 590 nm, pre-biofilm stage: biofilm had been absolutely removed
MRSA biofilm; auranofin + lysozyme combination after biofilm had appeared
  biofilm-based absorbance at 590 nm, post-biofilm stage: the decrease was not observed after biofilm had appeared
[8]; auranofin in combination with lysozyme
  fractional inhibitory concentration index (FICI): 0.266
ARPE-19 cells
  IC50 of auranofin on ARPE-19 cells: 2.21±0.34 μg/ml

## lysozyme: Human lysozyme (C-type) supplied by Sigma-Aldrich; hydrolase used in combination with the drugs
MRSA [1]; lysozyme alone
  minimum inhibitory concentration (MIC) of human lysozyme: > 150 mg/mL
MRSA [1]; with tedizolid phosphate at ca. 0.19 μg/ml
  reduction of the MIC value of lysozyme: 1200 fold
MRSA [1]; with tedizolid phosphate at ca. 0.19 μg/ml (0.4 μM, 0.004 MIC)
  MIC value of lysozyme: 0.1235 mg/mL
MRSE [9]
  minimum inhibitory concentration (MIC) of human lysozyme: > 150 mg/mL
MRSA [2]; lysozyme alone
  minimum inhibitory concentration (MIC) of human lysozyme: > 150 mg/mL and 150 mg/mL
MRSA [2]; with cefdinir at ca. 0.75 μg/ml
  drop of MIC value of lysozyme: 1200 folds
MRSA [2]; with cefdinir at ca. 0.75 μg/ml (1.89 μM)
  MIC value of lysozyme: 0.125 mg/mL
MRSA [5]
  inhibition effect on growth of MRSA at exponential phase: few inhibitions effect
MRSE [10]
  minimum inhibitory concentration (MIC) of human lysozyme: > 150 mg/mL
[8]; 0.17 μg/ml auranofin used in combination
  lysozyme level to which MRSA is sensitive (MIC): 1.0 mg/mL
[8]; lysozyme alone
  lysozyme level to which MRSA is sensitive (MIC): ≥ 150 mg/mL

## poly-l-lysine
MRSA [1]; poly-l-lysine in place of lysozyme, combined with tedizolid phosphate
  FICI: 0.375
